The target in assay [1] is T1, GLUT5A396W (Homo sapiens, UniProt P22732, A396W).
T1 construct: Full length DNA was subcloned into pFastBac1 (Life Technologies) vector with a N-terminal hexahistidine tag; hexahistidine (thrombin-cleavable) (N, cleaved yes); made in house; host or cells: Sf21 insect cells (baculovirus, pFastBac1)
T1 sequence (P22732 1-501 A396W): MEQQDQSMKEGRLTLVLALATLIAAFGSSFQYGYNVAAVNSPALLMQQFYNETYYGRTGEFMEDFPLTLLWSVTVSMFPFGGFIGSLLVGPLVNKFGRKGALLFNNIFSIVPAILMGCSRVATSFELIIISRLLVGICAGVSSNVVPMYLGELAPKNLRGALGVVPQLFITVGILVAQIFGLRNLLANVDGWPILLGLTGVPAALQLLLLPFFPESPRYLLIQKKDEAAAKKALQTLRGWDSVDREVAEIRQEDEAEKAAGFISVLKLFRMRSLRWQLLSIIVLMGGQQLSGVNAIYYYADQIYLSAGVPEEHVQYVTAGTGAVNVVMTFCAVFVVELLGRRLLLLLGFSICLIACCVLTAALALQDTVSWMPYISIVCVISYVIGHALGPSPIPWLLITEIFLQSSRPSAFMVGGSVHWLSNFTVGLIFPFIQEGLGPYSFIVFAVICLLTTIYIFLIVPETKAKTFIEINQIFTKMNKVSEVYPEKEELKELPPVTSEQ
Briefly: entrance counter-flow transport assay, fructose transport by GLUT5A396W proteoliposomes. It counts as biochemical. The protocol: We expressed and purified GLUT1W388A and GLUT5A396W. Purified mutant proteins were reconstituted into proteoliposomes and activity was determined by entrance counter-flow transport assay.
cDNAs of GLUT1 and GLUT5 were purchased from Open Biosystems (GE Healthcare). Full length DNA was subcloned into pFastBac1 (Life Technologies) vector with a N-terminal hexahistidine tag. Bacmids were generated in DH10Bac E. coli cells (Life Technologies). Baculoviruses were produced using Cellfectin II Reagent and amplified in Sf21 insect cells (Life Technologies). Cells were maintained at 26 °C, and P1 (10^6 pfu/mL) was collected from infected cells after 72 hours. Sf21 cells were propagated in HyClone SFX-Insect media (GE Healthcare), supplemented with 5% fetal bovine serum (Biowest), antibiotics (100 units/mL Penicillin G and 100 μg/mL streptomycin sulfate) and amphotericin B (2.5 μg/mL). For recombinant protein expression, Sf21 cells in suspension culture at 2 × 10^6 cells/ml were infected with P3 viral stock (10^8 pfu/mL), at an MOI of 1.0 pfu/cell. Four days after viral infection, cells from 2 L culture were collected by centrifugation at 2,000 × g and 25 °C. […]

In assay [2] the target is T2, human GLUT5 (Homo sapiens, UniProt P22732).
T2 construct: Full length DNA was subcloned into pFastBac1 (Life Technologies) vector with a N-terminal hexahistidine tag; hexahistidine (thrombin-cleavable) (N, cleaved yes); made in house; host or cells: Sf21 insect cells (baculovirus, pFastBac1)
T2 sequence (P22732 1-501): T1 sequence (P22732 1-501 A396W) with W396A
In words: entrance counter-flow transport assay, GLUT5-mediated fructose transport in proteoliposomes. It counts as biochemical. The source says: Human GLUT1 and GLUT5 were expressed recombinantly in insect cell culture. The purified proteins were reconstituted into proteoliposomes. To measure the inhibition of GLUT1 or GLUT5 transport activity we used entrance counter-flow transport assay.
Proteoliposomes were generated according to the protocol from[30] with minor modifications. Liposomes were produced from a 95/5% (w/w) mix of soy phosphatidylcholine and cholesterol (Avanti Polar Lipids). Briefly, hexane-washed and vacuum-dried lipids were resuspended to 20 mg/ml in 100 mM KPi (pH 7.5), and then subjected to 11 freeze-and-thaw cycles in liquid nitrogen and room temperature water. The lipid mixture was extruded through a 0.1 μm polycarbonate filter. Prepared liposomes were destabilized with 4 mM Triton X-100 and mixed with purified protein in a 100:1 (w/w) ratio in 100 mM KPi (pH 7.5) 20% (v/v) glycerol, 200 mM (glucose or fructose). Detergent was removed by several additions of SM2 BioBeads (BioRad) and incubated overnight at 4 °C. After filtering out the BioBeads, proteoliposomes were diluted with 100 mM KPi (pH 7.5) 200 mM (glucose or fructose), and then collected by ultracentrifugation, at 200,000 × g and 4 °C, for 1 hour. The proteoliposomes pellet was resuspended in the above buffer so that O.D.600nm was ~30.
To measure hexose transport, we utilized entrance counter-flow assay. Transport was performed in a volume of 100 μL of 100 mM KPi (pH 7.5) buffer containing radioactive ^14C-hexose (4 μM fructose or 5 μM glucose) with inhibitors added before initiation of transport. […] The reaction was started by the addition of 3 μL concentrated proteoliposomes to the above solution and incubated at room temperature; the transport was stopped after one minute by addition of ice-chilled quench buffer [100 mM KPi (pH 5.5) and 100 mM LiCl]. The solution was filtered through a 0.4 μm pore size cellulose nitrate membrane filter (Whatman), and the filter was washed three times with quench buffer. The membrane filter was placed into a vial filled with BioSafe II scintillation liquid (Research Products International Corp.), and radioactivity was quantified with LS 6500 scintillation counter (Beckman). […] Data is presented as relative activity normalized to radioactivity of no inhibitor added as 100% and empty proteoliposomes as 0%. Kinetic parameters were fitted by nonlinear algorithm plots using Prism (GraphPad Software).

The IC50 is the concentration that gives 50% inhibition. Higher therefore signals weaker potency in that assay.

Residue numbers refer to the chain shown, from its start. Values joined by “and” are separate entries in the source; they are usually repeats but may differ in a detail not shown here. Identical values can stand only once.

As for `C=C1C[C@@]23CC[C@H]4[C@@](C)(CCC[C@@]4(C)C(=O)O[C@@H]4O[C@H](CO)[C@@H](O)[C@H](O)[C@H]4O)[C@@H]2CC[C@]1(O[C@@H]1O[C@H](CO)[C@@H](O)[C@H](O)[C@H]1O)C3` [Rub, Rubusoside], the IC50 in assay [1] is 10.3 mM and 10 mM; in assay [2] (entrance counter-flow), 6.7 mM and ~5 mM and 5 mM. The “inhibition of GLUT5 fructose transport activity” value in assay [2] (added at 20 mM) is “reducing activity to background levels”.

Values taken from paper PMC4549712, “Inhibition of human GLUT1 and GLUT5 by plant carbohydrate products; insights into transport specificity” (Scientific Reports, 2015).
